The values that follow come from PubChem BioAssay AID602298 (The Scripps Research Institute Molecular Screening Center, 2012).

The structures appear in SMILES notation. Calls of active or inactive are those of the source. The rule behind the calls is not given here.

This assay concerns the target Melanocortin receptor 4 (Homo sapiens) (UniProt P32245). The experiment in a line: PubChem AID 602298. The following applies: MC4R stable cells, MTII-stimulated cAMP, TR-FRET. (In general: Time-resolved FRET reads energy transfer from a long-lived donor to a nearby acceptor.)

Chain of Melanocortin receptor 4 (Homo sapiens) (P32245 whole entry, looked up): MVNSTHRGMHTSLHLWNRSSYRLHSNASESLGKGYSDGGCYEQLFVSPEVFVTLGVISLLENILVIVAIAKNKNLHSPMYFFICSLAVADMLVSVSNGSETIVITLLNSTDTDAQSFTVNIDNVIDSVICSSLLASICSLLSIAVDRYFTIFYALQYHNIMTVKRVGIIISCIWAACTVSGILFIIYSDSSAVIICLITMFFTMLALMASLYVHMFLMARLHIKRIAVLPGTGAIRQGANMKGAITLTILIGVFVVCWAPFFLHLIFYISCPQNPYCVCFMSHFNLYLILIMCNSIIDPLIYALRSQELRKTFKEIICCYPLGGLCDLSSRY

Take `CCOP(=O)(CCP(=O)(OCC)OCC)OCC.C[CH2][Sn]([Cl])([Cl])[CH2]C`: the IC50 entry is “inactive”.
